Test [1] relates to PGE2 synthesis. The experiment in a line: PGE2 synthesis in human monocytes incubated with LPS. The class given is cell-based. Particulars: LPS 200 ng/mL, 18 hrs, dose responsive. Here is the method: (§1) Human peripheral blood monocytes (from three separate individuals) were isolated from buffy coats by lymphoprep gradient separation of mononuclear cells followed by counter-current centrifugal elutriation (Demasi et al. 2000). The test compounds were dissolved in DMSO and added to fresh monocytes After 30 min, LPS was added to achieve a final concentration of 200 ng/mL. After incubation for 18 hrs at 37° C. in 5% CO2, supernatants were removed and PGE2, TXB2 (the stable hydrolysis product of TXA2) and TNFα production were measured by radioimmunoassay (RIA).

Test [2] relates to TXB2 synthesis. Nature of the test: TXB2 synthesis in human monocytes incubated with LPS. The class given is cell-based. Particulars: LPS 200 ng/mL, 18 hrs, dose responsive. How it is done: as §1
The subject of test [3] is TNFα synthesis. The experiment in a line: TNFα synthesis in human monocytes incubated with LPS. The class given is cell-based. Particulars: LPS 200 ng/mL, 18 hrs. How it is done: as §1
Test [4] concerns PGE2. Nature of the test: PGE2 in murine macrophages (RAW 264.7) stimulated with LPS. Particulars: RAW 264.7, LPS 50 ng/ml, 16 hrs, dose responsive. The test is classed as cell-based, mouse. Here is the method:
(§2) The mouse macrophage cell line RAW 264.7 was cultured in DMEM supplemented with FCS, 2 mM glutamine and 50 U/ml penicillin/streptomycin. Subconfluent cells were detached from the flask by gentle scraping and 24-well plates seeded at 5×10^5 cells per well and allowed to adhere for 1 hr. Cells were then treated either test compounds (in 0.025% DMSO) or vehicle alone, and incubated for 1 hr. LPS 50 ng/ml (LPS —Sigma-Aldrich) was then added. After incubation for 16 hrs, culture media was collected and stored at −80° C. for ecosanoid and cytokine measurements using enzyme immunometric assays (PGE2 and TXB2—Cayman Chemical and TNFα—Becton Dickinson).

Test [5] has as its system TXB2. The experiment in a line: TXB2 in murine macrophages (RAW 264.7) stimulated with LPS. The test is classed as cell-based, mouse. Particulars: RAW 264.7, LPS 50 ng/ml, 16 hrs, dose responsive. How it is done: as §2
Test [6] deals with UV irradiation-induced skin oedema. The experiment in a line: Murine model of UV irradiation-induced skin oedema. Particulars: for Change in skin thickness (mean ± SD, ×0.01 mm): dorsal skin fold, topical 0.2 ml of 20 μM at 30 min, 2 h, 4 h. The test is classed as in vivo, female Skh:hr-1 albino mice. The source says:
Groups of 4-5 female Skh:hr-1 albino mice were irradiated with 1×3 MEdD (minimal edematous dose) of solar simulated UV radiation (SSUV). Solar-simulated ultraviolet radiation (SSUV) was provided by a planar bank of 6 UVA tube (Hitachi 40W F40T 10/BL, black light) and one UVB tube (Philips TL 40W/12RS) with radiation filtered through a sheet of 0.125 mm cellulose acetate (Eastman Chemical Products, Kingport, Tenn., USA) to give 2.96×10-4W/cm2 UVA and 1.59×10-5W/cm2 UVB. The distance of the UV lamp from the irradiance table surface was approximately 20 cm and temperature was controlled with an electric fan. During irradiation, the cages were rotated below the lights to reduce the variation in radiation intensity in different positions.
Either test compound (0.2 ml of a 20 μM solution) or vehicle (propylene glycol/ethanol/water 1:2:1) was applied to the irradiated dorsal skin at 30 min, 2 h and 4 h post-irradiation. Dorsal skin fold measurements were made with a spring micrometer prior to and at 24 hr and 48 h post-UV exposure. The difference in skin thickness pre- and post-exposure to UVR was calculated for each mouse, and the differences examined between test compound and vehicle control were analysed using an unpaired two-tailed t test.

Test [7] deals with splenocytes. The experiment in a line: Murine splenocyte proliferation with mitogens (MTT), 3 day incubation with compound. The class given is cell-based, Male Skh-1 (hairless) mice. Here is the method:
Male Skh-1 (hairless) mice, six weeks old were killed by cervical dislocation. Single cell suspensions were made from their spleens and erythrocytes were lysed in buffer (0.14M NH4Cl, 17 mM Tris, pH 7.2). The remaining splenocytes were cultured in RPMI-1640 (Gibco) supplemented with 10% (v:v) FBS, 200 mM L-glutamine, penicillin/streptomycin and […] 2-mercaptoethanol. […] Samples were analysed after a 3 day incubation at 37° C. in 5% CO2 in air. To assess cell numbers, methylthiazoletetrazolium (MTT) was added to each well, incubated for a further 4 hrs and then colour developed with 0.04N HCl in isopropanol (Mosmann 1983). Plates were read at 570 nm and 630 nm. The compounds were examined several times using different mice. For each assay, the effect of test compound was compared with that of vehicle control, and the results compared using a student's t test (Prism). Statistically significant difference was determined to have occurred when p<0.05.

The test system of test [8] is unstimulated splenocytes. Nature of the test: Murine splenocytes, 24 hour pre-incubation with compound then mitogenic stimulation. The test is classed as cell-based, Male Skh-1 (hairless) mice. Conditions: 10 μM. How it is done:
Male Skh-1 (hairless) mice, six weeks old were killed by cervical dislocation. Single cell suspensions were made from their spleens and erythrocytes were lysed in buffer (0.14M NH4Cl, 17 mM Tris, pH 7.2). The remaining splenocytes were cultured in RPMI-1640 (Gibco) supplemented with 10% (v:v) FBS, 200 mM L-glutamine, penicillin/streptomycin and […] 2-mercaptoethanol. Splenocytes were added to triplicate wells containing either concanavalin A (ConA, Sigma-Aldrich—0.4 μg/well), lipopolysaccharide (LPS, Sigma-Aldrich—1 μg/well) or no mitogen, as well as 10 μM of either Compound 1 or Compound 2 in DMSO, or DMSO alone. Samples were analysed after a 3 day incubation at 37° C. in 5% CO2 in air. To assess cell numbers, methylthiazoletetrazolium (MTT) was added to each well, incubated for a further 4 hrs and then colour developed with 0.04N HCl in isopropanol (Mosmann 1983). Plates were read at 570 nm and 630 nm. The compounds were examined several times using different mice. For each assay, the effect of test compound was compared with that of vehicle control, and the results compared using a student's t test (Prism). Statistically significant difference was determined to have occurred when p<0.05.
Another assay examined the effect pre-incubating unstimulated splenocytes with test compounds at 10 μM for 24 hours, removing the compounds and then assessing their ability to respond to mitogenic stimulation as described for the previous assay. Cell numbers were assessed after the 24 hr pre-incubation using MTT, and equal numbers of cells/well plated into 96 well plates as usual.

Turning to `COc1ccc(C23COc4cc(O)ccc4C2C2c4ccc(O)cc4OCC2c2cc(OC)c(OC)cc23)cc1OC` (stereo not drawn) [Cpd. 1, 4,9-Dihydroxy-14,15-dimethoxy-12a-(3′,4′-dimethoxyphenyl)-2,11-dioxa-(1H,12H)-6b,6c,12a,16b-tetrahydronaphtho[1,2-g]chrysene], the “effect on PGE2 synthesis” value in test [1] is listed as “induced”. Also, in test [2], the “effect on TXB2 synthesis” value is recorded as “inhibited”. For the same compound, in test [3], the “effect on induction of TNFα” value is listed as “inhibited”. Further, in test [4], the “effect on PGE2” value was “induced”. In test [5], the “effect on TXB2” value was “inhibited”. The “inhibition of skin oedema” value in test [6] (24 hrs post-irradiation) is listed as “significantly inhibited”. In test [6] (24 hrs post-irradiation, vehicle 78 ± 23), the “Change in skin thickness (mean ± SD, ×0.01 mm)” value was 51 ± 14 ×0.01 mm. The “Change in skin thickness (mean ± SD, ×0.01 mm)” value in test [6] (48 hrs post-irradiation, vehicle 147 ± 37) is reported as 117 ± 20 ×0.01 mm. Moreover, the “effect on B cell proliferation” value in test [7] (10 μM, LPS, 3 day incubation) is reported as “no effect”. In addition, the “enhancement of proliferation of unstimulated splenocytes” value in test [7] (10 μM, no mitogen, significant in 5/6 assays) is recorded as 25-33%. For the same compound, in test [7] (Mus musculus, Splenocyte, 72 h, 10 μM, ConA, 3 day incubation, significant in 4/6 assays, read-out: inhibition of T cell proliferation), the inhibition at 10 µM is 14 to 19%. Further, in test [7] (higher concentrations (than 10 μM), regardless of mitogenic stimulation), the “proliferation compared with vehicle control” value is listed as “reduced proliferation”. For the same compound, in test [8], the “Splenocyte viability following three days' culture in the absence of mitogen” value is recorded as “not affected” and the “reduction in cell numbers compared with vehicle alone” value is reported as 73%. Moreover, the “proliferative response to ConA after pre-incubation” value in test [8] (compound removed) is on record as “no effect”.

Values taken from US7700644B2, “Isoflavonoid dimers” (Novogen Research Pty Ltd, priority 2005, dated 2010).
